Test results published in the NIST ThermoML archive (doi:10.1021/je100237h).
± gives the expanded uncertainty stated by the source.

Conditions: Liquid; for viscosity: 101.33 kPa, Concentric cylinders viscometry; for mass density: Vibrating tube method

COC(=O)CCCCC(=O)OC [dimethyl 1,6-hexanedioate]
Conditions | viscosity [mPa·s]
283.15 K | 4.39 ± 0.09
288.15 K | 3.82 ± 0.08
293.15 K | 3.36 ± 0.07
298.15 K | 2.98 ± 0.06
303.15 K | 2.67 ± 0.06
308.15 K | 2.4 ± 0.05
313.15 K | 2.18 ± 0.05
318.15 K | 1.99 ± 0.04
323.15 K | 1.82 ± 0.04
328.15 K | 1.68 ± 0.04
333.15 K | 1.55 ± 0.03
338.15 K | 1.44 ± 0.03
343.15 K | 1.34 ± 0.03

mass density [kg/m3]
Conditions | 293.15 K | 303.15 K | 313.15 K | 323.15 K | 333.15 K | 343.15 K
100 kPa | 1061.5 ± 2.1 | 1051.8 ± 2.1 | 1042.1 ± 2.1 | 1031.6 ± 2.1 | 1022.6 ± 2.1 | 1012.3 ± 2
10000 kPa | 1067.7 ± 2.2 | 1058 ± 2.1 | 1048.9 ± 2.1 | 1038.9 ± 2.1 | 1029.6 ± 2.1 | 1020.4 ± 2.1
20000 kPa | 1073.6 ± 2.2 | 1064.4 ± 2.2 | 1055.6 ± 2.1 | 1045.7 ± 2.1 | 1036.8 ± 2.1 | 1028.1 ± 2.1
30000 kPa | 1079.2 ± 2.2 | 1070.5 ± 2.2 | 1061.8 ± 2.1 | 1052.1 ± 2.1 | 1043.6 ± 2.1 | 1034.8 ± 2.1
40000 kPa | 1084.5 ± 2.2 | 1076 ± 2.2 | 1067.5 ± 2.2 | 1058.3 ± 2.1 | 1049.9 ± 2.1 | 1041.3 ± 2.1
50000 kPa | 1089.6 ± 2.2 | 1081.5 ± 2.2 | 1073.2 ± 2.2 | 1063.9 ± 2.2 | 1056 ± 2.1 | 1047.6 ± 2.1
60000 kPa | 1094.7 ± 2.2 | 1086.7 ± 2.2 | 1078.6 ± 2.2 | 1069.1 ± 2.2 | 1061.5 ± 2.2 | 1053.5 ± 2.1
70000 kPa | 1099.5 ± 2.3 | 1091.5 ± 2.2 | 1083.7 ± 2.2 | 1074.4 ± 2.2 | 1066.9 ± 2.2 | 1058.6 ± 2.2
80000 kPa | 1104.2 ± 2.3 | 1096.1 ± 2.3 | 1088.7 ± 2.2 | 1079.3 ± 2.2 | 1072 ± 2.2 | 1064.2 ± 2.2
90000 kPa | 1108.5 ± 2.3 | 1100.6 ± 2.3 | 1093.2 ± 2.3 | 1084.2 ± 2.2 | 1076.9 ± 2.2 | 1069.3 ± 2.2
100000 kPa | 1112.8 ± 2.3 | 1104.7 ± 2.3 | 1097.2 ± 2.3 | 1088.9 ± 2.3 | 1082 ± 2.3 | 1074.1 ± 2.2
110000 kPa | – | 1108.9 ± 2.4 | 1101.5 ± 2.3 | 1093.3 ± 2.3 | 1086.8 ± 2.3 | 1079 ± 2.3
120000 kPa | – | 1113.1 ± 2.4 | 1105.6 ± 2.4 | 1097.9 ± 2.3 | 1091.1 ± 2.3 | 1083.9 ± 2.3
130000 kPa | – | 1117 ± 2.4 | 1109.8 ± 2.4 | 1102.2 ± 2.4 | 1095.5 ± 2.4 | –
140000 kPa | – | 1120.9 ± 2.5 | 1113.8 ± 2.4 | 1106.2 ± 2.4 | 1099.8 ± 2.4 | –
